Measurements from US20210393633A1, “INHIBITORS OF HUMAN IMMUNODEFICIENCY VIRUS REPLICATION” (ViiV HEALTHCARE UK (NO.5) LIMITED, priority 2018, published 2021).

Experiments:
[1] = tested on: recombinant NL4-3 virus (nef section replaced with Renilla luciferase gene) in MT-2 cells; experiment: HIV cell culture assay (antiviral activity, luciferase readout in infected MT-2 cells); assay type: cell-based; conditions: NL43
Experimental: HIV cell culture assay—MT-2 cells, 293T cells and the proviral DNA clone of NL4-3 virus were obtained from the NIH AIDS Research and Reference Reagent Program. MT-2 cells were propagated in RPMI 1640 media supplemented with 10% heat inactivated fetal bovine serum (FBS), […]. The 293T cells were propagated in DMEM media supplemented with 10% heat inactivated FBS, […]. A recombinant NL4-3 proviral clone, in which a section of the nef gene was replaced with the Renilla luciferase gene, was used to make the reference virus used in these studies. The recombinant virus was prepared through transfection of the recombinant NL4-3 proviral clone into 293T cells using Transit-293 Transfection Reagent from Minis Bio LLC (Madison, Wis.). Supernatent was harvested after 2-3 days and the amount of virus present was titered in MT-2 cells using luciferase enzyme activity as a marker by measuring luciferase enzyme activity. Luciferase was quantitated using the EnduRen Live Cell Substrate from Promega (Madison, Wis.). Antiviral activities of compounds toward the recombinant virus were quantified by measuring luciferase activity in MT-2 cells infected for 4-5 days with the recombinant virus in the presence of serial dilutions of the compound.
The 50% effective concentration (EC5o) was calculated by using the exponential form of the median effect equation where (Fa)=1/[1+(ED50/drug conc.)m] (Johnson Va., Byington R T. Infectivity Assay. In Techniques in HIV Research. ed. Aldovini A, Walker B D. 71-76. New York: Stockton Press.1990). The 50% inhibitory concentration (EC50) was calculated by using the exponential form of the median effect equation where percent inhibition=1/[1 +(EC50/drug concentration)m], where m is a parameter that reflects the slope of the concentration-response curve.

[2] = Compound cytotoxicity, XTT-based colorimetric assay; assay type: cell-based; conditions: human; uninfected MT2 cells, day 4, XTT
Experimental: Compound cytotoxicity and the corresponding CC50 values were determined using the same protocol as described in the antiviral assay except that uninfected cells were used. Cytotoxicity was assessed on day 4 in uninfected MT2 cells by using a XTT (2,3-bis[2-Methoxy-4-nitro-5-sulfophenyl]-2H-tetrazolium-5-carboxyanilide inner salt)-based colorimetric assay (Sigma-Aldrich, St Louis, Mo).

`Cn1nc(NS(C)(=O)=O)c2c(Cl)ccc(-n3c([C@H](Cc4cc(F)cc(F)c4)NC(=O)Cn4nc(C(F)F)c5c4C(F)(F)[C@@H]4C[C@H]54)nc4cc(CCC(=O)N5CCOCC5)ccc4c3=O)c21` [Example 1, N—((S)-1-((3P)-3-(4-chloro-1-methyl-3-(methylsulfonamido)-1H-indazol-7-yl)-7-(3-morpholino-3-oxopropyl)-4-oxo-3,4-dihydroquinazolin-2-yl)-2-(3,5-difluorophenyl)ethyl)-2-((3bS,4aR)-3-(difluoromethyl)-5,5-difluoro-3b,4,4a,5-tetrahydro-1H-cyclopropa[3,4]cyclopenta[1,2-c]pyrazol-1-yl)acetamide] showed an EC50 [1] of 0.096 nM and a CC50 at 4 day [2] of over 1000 nM.
With `C[C@@H]1CC(c2ccc3c(=O)n(-c4ccc(Cl)c5c(NS(C)(=O)=O)nn(CC(F)F)c45)c([C@H](Cc4cc(F)cc(F)c4)NC(=O)Cn4nc(C(F)F)c5c4C(F)(F)[C@@H]4C[C@H]54)nc3c2)=C[C@H](C)O1` (atropisomer, axis not shown; (P)) [Example 20, N—((S)-1-((3P)-3-(4-chloro-1-(2,2-difluoroethyl)-3-(methylsulfonamido)-1H-indazol-7-yl)-7-((2R,6S)-2,6-dimethyl-3,6-dihydro-2H-pyran-4-yl)-4-oxo-3,4-dihydroquinazolin-2-yl)-2-(3,5-difluorophenyl)ethyl)-2-((3bS,4aR)-3-(difluoromethyl)-5,5-difluoro-3b,4,4a,5-tetrahydro-1H-cyclopropa[3,4]cyclopenta[1,2-c]pyrazol-1-yl)acetamide] the EC50 [1] was 0.13 nM and the CC50 at 4 day [2] was over 500 nM.
Molecule `O=C(Cn1nc(C(F)F)c2c1C(F)(F)[C@@H]1C[C@H]21)N[C@@H](Cc1cc(F)cc(F)c1)c1nc2cc(C3=CCOCC3)ccc2c(=O)n1-c1ccc(Cl)c2c(NS(=O)(=O)C3CC3)nn(CC(F)F)c12` [Example 16, N—((S)-1-((3P)-3-(4-chloro-3-(cyclopropanesulfonamido)-1-(2,2-difluoroethyl)-1H-indazol-7-yl)-7-(3,6-dihydro-2H-pyran-4-yl)-4-oxo-3,4-dihydroquinazolin-2-yl)-2-(3,5-difluorophenyl)ethyl)-2-((3bS,4aR)-3-(difluoromethyl)-5,5-difluoro-3b,4,4a,5-tetrahydro-1H-cyclopropa[3,4]cyclopenta[1,2-c]pyrazol-1-yl)acetamide] has an EC50 [1] of 0.3 nM and a CC50 at 4 day [2] of over 500 nM.
`Cn1nc(NS(C)(=O)=O)c2c(Cl)ccc(-n3c([C@H](Cc4cc(F)cc(F)c4)NC(=O)Cn4nc(C(F)F)c5c4C(F)(F)[C@@H]4C[C@H]54)nc4cc(C5CCOCC5)ccc4c3=O)c21` (atropisomer, axis not shown; (P)) [Example 11, N—((S)-1-((3P)-3-(4-chloro-1-methyl-3-(methylsulfonamido)-1H-indazol-7-yl)-4-oxo-7-(tetrahydro-2H-pyran-4-yl)-3,4-dihydroquinazolin-2-yl)-2-(3,5-difluorophenyl)ethyl)-2-((3bS,4aR)-3-(difluoromethyl)-5,5-difluoro-3b,4,4a,5-tetrahydro-1H-cyclopropa[3,4]cyclopenta[1,2-c]pyrazol-1-yl)acetamide] showed an EC50 [1] of 0.046 nM and a CC50 at 4 day [2] of over 1000 nM.
For `Cn1nc(NS(C)(=O)=O)c2c(Cl)ccc(-n3c([C@H](Cc4cc(F)cc(F)c4)NC(=O)Cn4nc(C(F)F)c5c4C(F)(F)[C@@H]4C[C@H]54)nc4cc(C5=CCCC5)ccc4c3=O)c21` (atropisomer, axis not shown; (P)) [Example 8, N—((S)-1-((3P)-3-(4-chloro-1-methyl-3-(methylsulfonamido)-1H-indazol-7-yl)-7-(cyclopent-1-en-1-yl)-4-oxo-3,4-dihydroquinazolin-2-yl)-2-(3,5-difluorophenyl)ethyl)-2-((3bS,4aR)-3-(difluoromethyl)-5,5-difluoro-3b,4,4a,5-tetrahydro-1H-cyclopropa[3,4]cyclopenta[1,2-c]pyrazol-1-yl)acetamide], the EC50 [1] was 0.392 nM and the CC50 at 4 day [2] was over 1000 nM.
Molecule `CS(=O)(=O)Nc1nn(CC(F)F)c2c(-n3c([C@H](Cc4cc(F)cc(F)c4)NC(=O)Cn4nc(C(F)F)c5c4C(F)(F)[C@@H]4C[C@H]54)nc4cc(C5=CCOCC5)ccc4c3=O)ccc(Cl)c12` (atropisomer, axis not shown; (P)) [Example 15, N—((S)-1-((3P)-3-(4-chloro-1-(2,2-difluoroethyl)-3-(methylsulfonamido)-1H-indazol-7-yl)-7-(3,6-dihydro-2H-pyran-4-yl)-4-oxo-3,4-dihydroquinazolin-2-yl)-2-(3,5-difluorophenyl)ethyl)-2-((3bS,4aR)-3-(difluoromethyl)-5,5-difluoro-3b,4,4a,5-tetrahydro-1H-cyclopropal3,41cyclopenta[1,2-c]pyrazol-1-yl)acetamide] has an EC50 [1] of 0.094 nM and a CC50 at 4 day [2] of over 500 nM.
With `CN1CC=C(c2ccc3c(=O)n(-c4ccc(Cl)c5c(NS(C)(=O)=O)nn(C)c45)c([C@H](Cc4cc(F)cc(F)c4)NC(=O)Cn4nc(C(F)F)c5c4C(F)(F)[C@@H]4C[C@H]54)nc3c2)CC1` (atropisomer, axis not shown; (P)) [Example 13] the EC50 [1] was 0.098 nM and the CC50 at 4 day [2] was over 1000 nM.
For `CN1CCC(c2ccc3c(=O)n(-c4ccc(Cl)c5c(NS(C)(=O)=O)nn(C)c45)c([C@H](Cc4cc(F)cc(F)c4)NC(=O)Cn4nc(C(F)F)c5c4C(F)(F)[C@@H]4C[C@H]54)nc3c2)CC1` (atropisomer, axis not shown; (P)) [Example 14, N—((S)-1-((3P)-3-(4-chloro-1-methyl-3-(methylsulfonamido)-1H-indazol-7-yl)-7-(1-methylpiperidin-4-yl)-4-oxo-3,4-dihydroquinazolin-2-yl)-2-(3,5-difluorophenyl)ethyl)-2-((3bS,4aR)-3-(difluoromethyl)-5,5-difluoro-3b,4,4a,5-tetrahydro-1H-cyclopropa[3,4]cyclopenta[1,2-c]pyrazol-1-yl)acetamide], the EC50 [1] was 0.23 nM and the CC50 at 4 day [2] was over 500 nM.
`CC(C)=C(C)c1ccc2c(=O)n(-c3ccc(Cl)c4c(NS(C)(=O)=O)nn(C)c34)c([C@H](Cc3cc(F)cc(F)c3)NC(=O)Cn3nc(C(F)F)c4c3C(F)(F)[C@@H]3C[C@H]43)nc2c1` (atropisomer, axis not shown; (P)) [Example 7, N—((S)-1-((3P)-3-(4-chloro-1-methyl-3-(methylsulfonamido)-1H-indazol-7-yl)-7-(3-methylbut-2-en-2-yl)-4-oxo-3,4-dihydroquinazolin-2-yl)-2-(3,5-difluorophenyl)ethyl)-2-((3bS,4aR)-3-(difluoromethyl)-5,5-difluoro-3b,4,4a,5-tetrahydro-1H-cyclopropa[3,4]cyclopenta[1,2-c]pyrazol-1-yl)acetamide] gave an EC50 [1] of 0.386 nM and a CC50 at 4 day [2] of over 1000 nM.
`Cn1nc(NS(C)(=O)=O)c2c(Cl)ccc(-n3c([C@H](Cc4cc(F)cc(F)c4)NC(=O)Cn4nc(C(F)F)c5c4C(F)(F)[C@@H]4C[C@H]54)nc4cc(C5=CCCCC5)ccc4c3=O)c21` (atropisomer, axis not shown; (P)) [Example 6, N—((S)-1-((3P)-3-(4-chloro-1-methyl-3-(methylsulfonamido)-1H-indazol-7-yl)-7-(cyclohex-1-en-1-yl)-4-oxo-3,4-dihydroquinazolin-2-yl)-2-(3,5-difluorophenyl)ethyl)-2-((3bS,4aR)-3-(difluoromethyl)-5,5-difluoro-3b,4,4a,5-tetrahydro-1H-cyclopropa[3,4]cyclopenta[1,2-c]pyrazol-1-yl)acetamide] showed an EC50 [1] of 1.32 nM and a CC50 at 4 day [2] of over 1000 nM.
